Counter-ions that a name gives are not always drawn.

T1 sequence (P23975 whole entry): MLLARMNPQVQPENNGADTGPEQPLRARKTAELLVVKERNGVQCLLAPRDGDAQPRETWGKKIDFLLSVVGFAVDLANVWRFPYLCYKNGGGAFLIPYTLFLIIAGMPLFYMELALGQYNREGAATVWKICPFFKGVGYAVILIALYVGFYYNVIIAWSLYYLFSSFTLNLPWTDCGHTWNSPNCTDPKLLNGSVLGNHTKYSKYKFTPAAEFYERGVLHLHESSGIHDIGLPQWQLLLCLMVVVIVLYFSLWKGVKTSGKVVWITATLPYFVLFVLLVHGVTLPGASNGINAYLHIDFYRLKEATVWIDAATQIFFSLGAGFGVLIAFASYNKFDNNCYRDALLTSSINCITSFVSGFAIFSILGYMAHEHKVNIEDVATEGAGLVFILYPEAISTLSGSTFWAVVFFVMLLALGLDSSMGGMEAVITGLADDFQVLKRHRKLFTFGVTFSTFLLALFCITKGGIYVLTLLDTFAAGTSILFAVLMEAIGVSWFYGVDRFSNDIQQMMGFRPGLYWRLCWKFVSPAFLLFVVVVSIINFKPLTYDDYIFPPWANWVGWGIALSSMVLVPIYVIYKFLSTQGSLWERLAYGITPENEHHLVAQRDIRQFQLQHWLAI

One assay addresses T1, human hNET (Homo sapiens, UniProt P23975).
T1 construct: expressed in transfected cells; host or cells: MDCK-Net6 (MDCK cells stably transfected with hNET)
Description: Functional norepinephrine reuptake assay, Procedure B (6,000 cells/well). In kind it is cell-based.
Settings: not given
As for the experimental part: For screening, 25 μl aliquots of compound solution at a 1 μM or 10 μM final concentration was delivered directly to cells.
For IC50 determinations, stock compounds were prepared at 10 mM from powder. The stock solution was diluted according to compound testing range. […] On the day of assay, 25 μl of compound solution at the specified concentrations were added to the plates containing cells. A DMSO stock of desipramine was prepared at 10 mM in DMSO and diluted for a final concentration of 20 μM to determine the non-specific reuptake.
MDCK-Net6 cells, stably transfected with human hNET (Pacholczyk, 1991), were maintained in growth media [high glucose DMEM (Gibco Cat. 11995), 10% FBS (dialyzed, heat-inactivated, Sigma, dialysed, heat inactivated, Lot# K0922 or equivalent) 1xPen/Strep, and 500 μg/ml G418 (Gibco Cat. 10131)]. Cells were plated at 300,000/T75 flask and cells split twice weekly.
Cells were plated at 50,000 cells/well (Procedure A) or 6,000 cells/well (Procedure B) on day 1 in BD Falcon Microtest 96-well sterile cell culture plates, Optilux White/Clear Bottom TC plate (VWR; # 62406-466 or equivalent) in growth media and maintained in a cell incubator (37° C., 5% CO2). On Day 2, cells were removed from the cell incubator and the growth media is replaced by 200 μl of assay buffer (25 mm HEPES 120 mM NaCL; 5 mM KCl; 2.5 mM CaCl2; 1.2 mM MgSO4; 2 mg/ml glucose (pH 7.4, 37° C.)) containing 0.2 mg/ml ascorbic acid and 1 μM parglyine. For screening, 25 μl of compound in 4% DMSO was added directly to each well and the plate was incubated for 5 minutes (37° C.). […] The reaction is aspirated from the plate and the cells washed with 250 μl of 50 mM Tris Buffer (4° C.). The plates were left to dry for 1 hour. The cells were lysed using 0.25 M NaOH solution then placed on a shake table and vigorously shaken for 10 minutes. After cell lysis, 100 μl of Microscint 20 (PerkinElmer; #87-051101) was added to the plates and the plates were sealed with film tape and replaced on the shake table for a minimum of 10 minutes. The plates were counted in a TopCount counter (PerkinElmer).
% inhibition=[1−((mean cpm test compound wells−mean cpm non-specific wells)/(mean cpm control wells−mean cpm non-specific wells))]×100
For IC50 determination, raw cpm values were generated in a data file from the TopCount counter. The data was organized using the Microsoft Excel and transferred into PRIZM graphing and statistical program, which calculated the estimated IC50 value. Calculation of IC50 values was made using non-linear regression analysis with a sigmoidal dose response with variable slope. The statistical program used wells containing ^3H norepinephrine only as the maximal NE reuptake determinant and wells containing ^3H norepinephrine plus 20 μM desipramine (AHR-9543) as the minimal NE reuptake determinant (non-specific determinant). Estimation of the IC50 value was completed on a log scale and the line was fit between the maximal and minimal NE reuptake values.
As to `CNCCC[C@H]1Cc2cc(F)ccc2N(c2ccccc2F)S1(=O)=O` (single isomer, unassigned) [Example 109], the IC50 was 93 nM.

As for `CNCCC[C@@H]1Cc2cc(F)ccc2N(c2ccccc2F)S1(=O)=O` (single isomer, unassigned) [Example 110], the IC50 is 11 nM.

The same assay, now with this note: MDCK-Net6 cells, 6,000 cells/well, 16 nM 3H-norepinephrine; read-out: Procedure B hNET uptake IC50.
As to `CNCCCC1Cc2ccccc2N(c2ccc(F)cc2F)S1(=O)=O` (racemic) [Example 99, 3-[1-(2,4-difluorophenyl)-2,2-dioxido-3,4-dihydro-1H-2,1-benzothiazin-3-yl]-N-methylpropan-1-amine], the IC50 is 62 nM.

Turning to `CNCCCC1Cc2cc(F)ccc2N(c2ccc(F)cc2F)S1(=O)=O` (racemic) [Example 111, 3-[1-(2,4-difluorophenyl)-6-fluoro-2,2-dioxido-3,4-dihydro-1H-2,1-benzothiazin-3-yl]-N-methylpropan-1-amine], the IC50 came to 92 nM.

On to `CNCCCC1Cc2ccccc2N(c2c(F)cccc2F)S1(=O)=O` (racemic) [Example 120, 3-[1-(2,6-difluorophenyl)-2,2-dioxido-3,4-dihydro-1H-2,1-benzothiazin-3-yl]-N-methylpropan-1-amine], for which the concentration for half-maximal inhibition (IC50) came out at 10 nM.

Consider `CNCCCC1Cc2ccccc2N(c2cccnc2)S1(=O)=O` (racemic) [Example 123, 3-(2,2-dioxido-1-pyridin-3-yl-3,4-dihydro-1H-2,1-benzothiazin-3-yl)-N-methylpropan-1-amine], for which the IC50 amounted to 256 nM.

As to `CNCCCC1Cc2ccccc2N(c2ccccn2)S1(=O)=O` (racemic) [Example 126, 3-(2,2-dioxido-1-pyridin-2-yl-3,4-dihydro-1H-2,1-benzothiazin-3-yl)-N-methylpropan-1-amine], the IC50 is 98 nM.

Consider `CNCCCC1Cc2cc(F)ccc2N(c2cccc(F)c2F)S1(=O)=O` (racemic) [Example 145, 3-[1-(2,3-difluorophenyl)-6-fluoro-2,2-dioxido-3,4-dihydro-1H-2,1-benzothiazin-3-yl]-N-methylpropan-1-amine], for which the IC50 was 74 nM.

Turning to `CNCCCC1Cc2cc(F)ccc2N(c2ccc(C)cc2F)S1(=O)=O` (racemic) [Example 148, 3-[6-fluoro-1-(2-fluoro-4-methylphenyl)-2,2-dioxido-3,4-dihydro-1H-2,1-benzothiazin-3-yl]-N-methylpropan-1-amine], the IC50 was 51 nM.

Turning to `CNCCCC1Cc2cc(F)ccc2N(c2cc(F)ccc2F)S1(=O)=O` (racemic) [Example 151, 3-[1-(2,5-difluorophenyl)-6-fluoro-2,2-dioxido-3,4-dihydro-1H-2,1-benzothiazin-3-yl]-N-methylpropan-1-amine], the IC50 was found to be 31 nM.

For the molecule `CNCCCC1Cc2cc(F)ccc2N(c2c(F)cccc2F)S1(=O)=O` (racemic) [Example 154, 3-[1-(2,6-difluorophenyl)-6-fluoro-2,2-dioxido-3,4-dihydro-1H-2,1-benzothiazin-3-yl]-N-methylpropan-1-amine], the IC50 is 31 nM.

For `CNCCCC1Cc2cc(F)ccc2N(c2ccccc2Cl)S1(=O)=O` (racemic) [Example 157, 3-[1-(2-chlorophenyl)-6-fluoro-2,2-dioxido-3,4-dihydro-1H-2,1-benzothiazin-3-yl]-N-methylpropan-1-amine], the IC50 was 128 nM.

For `CNCCCC1Cc2cc(F)ccc2N(c2ccccc2C)S1(=O)=O` (racemic) [Example 160, 3-[6-fluoro-1-(2-methylphenyl)-2,2-dioxido-3,4-dihydro-1H-2,1-benzothiazin-3-yl]-N-methylpropan-1-amine], the 50% inhibitory concentration (IC50) came out at 142 nM.

For the molecule `CNCCCC1Cc2cc(F)ccc2N(c2ccccc2C#N)S1(=O)=O` (racemic) [Example 163, 2-{6-fluoro-3-[3-(methylamino)propyl]-2,2-dioxido-3,4-dihydro-1H-2,1-benzothiazin-1-yl}benzonitrile], the concentration for half-maximal inhibition (IC50) amounted to 189 nM.

On to `CNCCCC1Cc2cc(F)ccc2N(c2ccccc2OC)S1(=O)=O` (racemic) [Example 166, 3-[6-fluoro-1-(2-methoxyphenyl)-2,2-dioxido-3,4-dihydro-1H-2,1-benzothiazin-3-yl]-N-methylpropan-1-amine], for which the IC50 is 304 nM.

On to `CNCCCC1Cc2cc(F)ccc2N(c2ccc(F)cc2C)S1(=O)=O` (racemic) [Example 169, 3-[6-fluoro-1-(4-fluoro-2-methylphenyl)-2,2-dioxido-3,4-dihydro-1H-2,1-benzothiazin-3-yl]-N-methylpropan-1-amine], for which the IC50 turned out to be 96 nM.

Consider `CNCCC[C@H]1Cc2ccccc2N(c2ccccc2)S1(=O)=O` (single isomer, unassigned) [Example 10], for which the IC50 was found to be 96 nM.

Consider `CNCCC[C@@H]1Cc2ccccc2N(c2ccccc2)S1(=O)=O` (single isomer, unassigned) [Example 11], for which the IC50 was 17.9 nM.

`CNCCC[C@H]1Oc2ccccc2N(c2ccccc2)S1(=O)=O` (single isomer, unassigned) [Example 13]: the IC50 was 38.7 nM.

For `CNCCC[C@@H]1Oc2ccccc2N(c2ccccc2)S1(=O)=O` (single isomer, unassigned) [Example 14], the IC50 is 23.9 nM.

On to `CNCCC[C@H]1Oc2cc3ccccc3cc2N(c2ccccc2)S1(=O)=O` (single isomer, unassigned) [Example 71, Hydrochloride], for which the 50% inhibitory concentration (IC50) was determined as 69.4 nM.

As to `CNCCC[C@@H]1Oc2cc3ccccc3cc2N(c2ccccc2)S1(=O)=O` (single isomer, unassigned) [Example 72, Hydrochloride], the IC50 was 115 nM.

For the molecule `CNCCC[C@H]1Cc2ccccc2N(c2ccccc2F)S1(=O)=O` (single isomer, unassigned) [Example 74, Hydrochloride], the IC50 is 58.5 nM.

As to `CNCCC[C@@H]1Cc2ccccc2N(c2ccccc2F)S1(=O)=O` (single isomer, unassigned) [Example 75], the IC50 is 3.7 nM.

`CNCCC[C@H]1Cc2ccccc2N(c2ccccc2F)S1(=O)=O` (single isomer, unassigned) [Example 90]: the IC50 is 59 nM.

Turning to `CNCCC[C@@H]1Cc2ccccc2N(c2ccccc2F)S1(=O)=O` (single isomer, unassigned) [Example 91], the half-inhibitory concentration (IC50) was 4 nM.

As to `CNCCC[C@@H]1Oc2ccccc2N(c2ccccc2F)S1(=O)=O` (single isomer, unassigned) [Example 94], the IC50 turned out to be 22 nM.

With `CNC[C@@H](O)C[C@H]1Oc2ccccc2N(c2ccccc2)S1(=O)=O` (single isomer, unassigned) [Example 98], the IC50 turned out to be 77 nM.

Turning to `CNCCC[C@H]1Cc2ccccc2N(c2ccc(F)cc2F)S1(=O)=O` (single isomer, unassigned) [Example 100], the IC50 came to 343 nM.

For `CNCCC[C@@H]1Cc2ccccc2N(c2ccc(F)cc2F)S1(=O)=O` (single isomer, unassigned) [Example 101], the IC50 came to 49 nM.

As for `NCC[C@H]1Oc2ccccc2N(c2ccccc2)S1(=O)=O` (single isomer, unassigned) [Example 102], the half-inhibitory concentration (IC50) was 1270 nM.

In the case of `NCC[C@@H]1Oc2ccccc2N(c2ccccc2)S1(=O)=O` (single isomer, unassigned) [Example 103], the IC50 came to 3320 nM.

In the case of `CNCC[C@H]1Oc2ccccc2N(c2ccccc2)S1(=O)=O` (single isomer, unassigned) [Example 104], the IC50 is 302 nM.

Regarding `CNCC[C@@H]1Oc2ccccc2N(c2ccccc2)S1(=O)=O` (single isomer, unassigned) [Example 105], the IC50 was 1220 nM.

On to `CNCCC[C@H]1Oc2cc(F)ccc2N(c2ccccc2)S1(=O)=O` (single isomer, unassigned) [Example 106], for which the IC50 was determined as 97 nM.

Turning to `CNCCC[C@@H]1Oc2cc(F)ccc2N(c2ccccc2)S1(=O)=O` (single isomer, unassigned) [Example 107], the IC50 was determined as 74 nM.

Still in this assay, the particulars now being: MDCK-Net6 cells, 6,000 cells/well; Conc 6000 nM (6 μM); read-out: Procedure B hNET uptake (% inhibition).
On to `CNCCCC1Cc2ccccc2N(c2ccncc2)S1(=O)=O` (racemic) [Example 133, 3-(2,2-dioxido-1-pyridin-4-yl-3,4-dihydro-1H-2,1-benzothiazin-3-yl)-N-methylpropan-1-amine], for which the inhibition at 6 µM amounted to 35%.

The IC50 is the midpoint of a concentration-inhibition curve. The term inhibition denotes the drop in the measured response relative to a control, in per cent.
